In the supplement of paper PMC10307832:

Assays:
Assay in all cases: relative viability (nuclei count vs DMSO), 5 days (fraction); higher = more cells survive
[1] = test system: NCI-H522
Procedure, shortened: (§1)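 Relative viability is defined as nuclei in treated wells over nuclei in vehicle wells. Duplicate plates were run and medians reported. Lung cancer cell lines in 1536-well plates were dosed by pin tool one day after seeding, with one drug or with a fixed anchor-drug dose plus five library-drug doses (not always all listed) in √10 steps, and nuclei were counted after 5 days.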

[2] = test system: NCI-H1623
Procedure, shortened: as §1

[3] = test system: NCI-H520
Procedure, shortened: as §1

[4] = test system: NCI-H1651
Procedure, shortened: as §1

[5] = test system: RERF-LC-KJ
Procedure, shortened: as §1

[6] = test system: A549
Procedure, shortened: as §1

[7] = test system: NCI-H1299
Procedure, shortened: as §1

[8] = test system: EBC-1
Procedure, shortened: as §1

[9] = test system: NCI-H1703
Procedure, shortened: as §1

[10] = test system: IA-LM
Procedure, shortened: as §1

[11] = test system: NCI-H1648
Procedure, shortened: as §1

[12] = test system: Calu-6
Procedure, shortened: as §1

O=C(O)c1ccc(-c2c[nH]c3ncc(-c4ccccc4)cc23)cc1C1CCCC1 + CCNC(=O)c1noc(-c2cc(C(C)C)c(O)cc2O)c1-c1ccc(CN2CCOCC2)cc1 [Luminespib] (partner 0.01 µM)
relative viability ([1]; first compound 0.04 µM): 1.37 | relative viability ([1]; first compound 0.1265 µM): 1.19 | relative viability ([1]; first compound 0.4 µM): 0.998 | relative viability ([1]; first compound 1.265 µM): 1.03 | relative viability ([2]; first compound 0.04 µM): 0.445 | relative viability ([2]; first compound 0.1265 µM): 0.471 | relative viability ([2]; first compound 0.4 µM): 0.512 | relative viability ([2]; first compound 1.265 µM): 0.496 | relative viability ([3]; first compound 0.04 µM): 0.223 | relative viability ([3]; first compound 0.1265 µM): 0.195 | relative viability ([3]; first compound 0.4 µM): 0.211 | relative viability ([3]; first compound 1.265 µM): 0.217 | relative viability ([4]; first compound 0.04 µM): 0.927 | relative viability ([4]; first compound 0.1265 µM): 0.863 | relative viability ([4]; first compound 0.4 µM): 0.6 | relative viability ([4]; first compound 1.265 µM): 0.638 | relative viability ([5]; first compound 0.04 µM): 1.32 | relative viability ([5]; first compound 0.1265 µM): 1.19 | relative viability ([5]; first compound 0.4 µM): 1.1 | relative viability ([5]; first compound 1.265 µM): 0.645

O=C(O)c1ccc(-c2c[nH]c3ncc(-c4ccccc4)cc23)cc1C1CCCC1 + Cc1nc(Nc2ncc(C(=O)Nc3c(C)cccc3Cl)s2)cc(N2CCN(CCO)CC2)n1 [Dasatinib] (partner 0.075 µM)
relative viability ([1]; first compound 0.04 µM): 0.833 | relative viability ([1]; first compound 0.1265 µM): 0.887 | relative viability ([1]; first compound 0.4 µM): 0.714 | relative viability ([1]; first compound 1.265 µM): 0.851 | relative viability ([2]; first compound 0.04 µM): 0.537 | relative viability ([2]; first compound 0.1265 µM): 0.502 | relative viability ([2]; first compound 0.4 µM): 0.535 | relative viability ([2]; first compound 1.265 µM): 0.545 | relative viability ([3]; first compound 0.04 µM): 0.199 | relative viability ([3]; first compound 0.1265 µM): 0.203 | relative viability ([3]; first compound 0.4 µM): 0.253 | relative viability ([3]; first compound 1.265 µM): 0.222 | relative viability ([4]; first compound 0.04 µM): 0.333 | relative viability ([4]; first compound 0.1265 µM): 0.5 | relative viability ([4]; first compound 0.4 µM): 0.384 | relative viability ([4]; first compound 1.265 µM): 0.3 | relative viability ([5]; first compound 0.04 µM): 0.758 | relative viability ([5]; first compound 0.1265 µM): 0.778 | relative viability ([5]; first compound 0.4 µM): 0.783 | relative viability ([5]; first compound 1.265 µM): 0.687

O=C(O)c1ccc(-c2c[nH]c3ncc(-c4ccccc4)cc23)cc1C1CCCC1 + N=C(N)NC(=N)NCCc1ccccc1 [Phenformin] (partner 250 µM)
relative viability ([1]; first compound 0.04 µM): 0.686 | relative viability ([1]; first compound 0.1265 µM): 0.724 | relative viability ([1]; first compound 0.4 µM): 0.549 | relative viability ([1]; first compound 1.265 µM): 0.65 | relative viability ([6]; first compound 0.04 µM): 0.168 | relative viability ([6]; first compound 0.1265 µM): 0.197 | relative viability ([6]; first compound 0.4 µM): 0.187 | relative viability ([6]; first compound 1.265 µM): 0.0803 | relative viability ([2]; first compound 0.04 µM): 0.618 | relative viability ([2]; first compound 0.1265 µM): 0.575 | relative viability ([2]; first compound 0.4 µM): 0.615 | relative viability ([2]; first compound 1.265 µM): 0.564 | relative viability ([3]; first compound 0.04 µM): 0.583 | relative viability ([3]; first compound 0.1265 µM): 0.82 | relative viability ([3]; first compound 0.4 µM): 0.585 | relative viability ([3]; first compound 1.265 µM): 0.594 | relative viability ([4]; first compound 0.04 µM): 0.349 | relative viability ([4]; first compound 0.1265 µM): 0.328 | relative viability ([4]; first compound 0.4 µM): 0.278 | relative viability ([4]; first compound 1.265 µM): 0.189 | relative viability ([5]; first compound 0.04 µM): 0.432 | relative viability ([5]; first compound 0.1265 µM): 0.456 | relative viability ([5]; first compound 0.4 µM): 0.389 | relative viability ([5]; first compound 1.265 µM): 0.369

O=C(O)c1ccc(-c2c[nH]c3ncc(-c4ccccc4)cc23)cc1C1CCCC1 + O=C(c1cc(Cc2n[nH]c(=O)c3ccccc23)ccc1F)N1CCN(C(=O)C2CC2)CC1 [Olaparib] (partner 8 µM)
relative viability ([7]; first compound 0.04 µM): 0.964 | relative viability ([7]; first compound 0.1265 µM): 1 | relative viability ([7]; first compound 0.4 µM): 0.893 | relative viability ([7]; first compound 1.265 µM): 0.821 | relative viability ([8]; first compound 0.04 µM): 0.692 | relative viability ([8]; first compound 0.1265 µM): 0.626 | relative viability ([8]; first compound 0.4 µM): 0.618 | relative viability ([8]; first compound 1.265 µM): 0.406 | relative viability ([1]; first compound 0.04 µM): 0.816 | relative viability ([1]; first compound 0.1265 µM): 0.673 | relative viability ([1]; first compound 0.4 µM): 0.596 | relative viability ([1]; first compound 1.265 µM): 0.755 | relative viability ([6]; first compound 0.04 µM): 0.224 | relative viability ([6]; first compound 0.1265 µM): 0.674 | relative viability ([6]; first compound 0.4 µM): 0.345 | relative viability ([6]; first compound 1.265 µM): 0.307 | relative viability ([9]; first compound 0.04 µM): 0.57 | relative viability ([9]; first compound 0.1265 µM): 0.468 | relative viability ([9]; first compound 0.4 µM): 0.382 | relative viability ([9]; first compound 1.265 µM): 0.49 | relative viability ([3]; first compound 0.04 µM): 0.337 | relative viability ([3]; first compound 0.1265 µM): 0.416 | relative viability ([3]; first compound 0.4 µM): 0.348 | relative viability ([3]; first compound 1.265 µM): 0.271 | relative viability ([4]; first compound 0.04 µM): 0.17 | relative viability ([4]; first compound 0.1265 µM): 0.187 | relative viability ([4]; first compound 0.4 µM): 0.176 | relative viability ([4]; first compound 1.265 µM): 0.192 | relative viability ([10]; first compound 0.04 µM): 0.836 | relative viability ([10]; first compound 0.1265 µM): 0.758 | relative viability ([10]; first compound 0.4 µM): 0.846 | relative viability ([10]; first compound 1.265 µM): 0.719 | relative viability ([11]; first compound 0.04 µM): 0.676 | relative viability ([11]; first compound 0.1265 µM): 1.15 | relative viability ([11]; first compound 0.4 µM): 0.763 | relative viability ([12]; first compound 0.04 µM): 0.521 | relative viability ([12]; first compound 0.1265 µM): 0.56 | relative viability ([12]; first compound 0.4 µM): 0.488 | relative viability ([12]; first compound 1.265 µM): 0.395 | relative viability ([5]; first compound 0.04 µM): 0.9 | relative viability ([5]; first compound 0.1265 µM): 0.788 | relative viability ([5]; first compound 0.4 µM): 0.786 | relative viability ([5]; first compound 1.265 µM): 0.473
